Data from ChEMBL document CHEMBL1201862, “PubChem BioAssay data set” (2004).
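Interpolation was linear, between the two tested concentrations surrounding the appropriate level; five concentrations were tested over 48 hours in 96-well plates. The concentration for 50% growth inhibition is given as GI50.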 Activity calls are given as the source filed them. Cut-off read from the data, not from the text of the source: active = GI50 up to about 1.1 µM and inactive = higher.

Experiments:
Assay in all cases: NCI anticancer screen, dose series, 48 h
UACC-62 = tested on: UACC-62
OVCAR-8 = tested on: OVCAR-8
SF-539 = tested on: SF-539
OVCAR-4 = tested on: OVCAR-4
CAKI-1 = tested on: CAKI-1
786-0 = tested on: 786-0
CCRF-CEM = tested on: CCRF-CEM
K562 = tested on: K562
U-251 = tested on: U-251
UACC-257 = tested on: UACC-257
SR = tested on: SR
NCI-H460 = tested on: NCI-H460
UO-31 = tested on: UO-31
SK-MEL-28 = tested on: SK-MEL-28
A549 = tested on: A549
HOP-92 = tested on: HOP-92
HCC 2998 = tested on: HCC 2998

Measured: GI50

NC1C2(CCCCCC2)NC(=O)C12CCCCCC2 (configuration not stated)
inactive: UACC-62 > 100 µM | OVCAR-8 > 100 µM | SF-539 > 100 µM | OVCAR-4 > 100 µM | CAKI-1 > 100 µM | 786-0 > 100 µM | CCRF-CEM > 100 µM | K562 > 100 µM | U-251 > 100 µM | UACC-257 > 100 µM | SR > 100 µM | NCI-H460 > 100 µM | UO-31 > 100 µM | SK-MEL-28 > 100 µM | A549 > 100 µM | HOP-92 > 100 µM

O=C(Cc1ccccc1)NN1C(=O)C(Cl)C1c1ccccc1O (configuration not stated)
inactive: UACC-62 19.5 µM | OVCAR-8 22.4 µM | OVCAR-4 8.81 µM | CAKI-1 40.2 µM | 786-0 16.8 µM | CCRF-CEM 3.17 µM | K562 14.4 µM | U-251 12.8 µM | UACC-257 11.4 µM | SR 3.98 µM | NCI-H460 4.62 µM | UO-31 4.54 µM | SK-MEL-28 23.5 µM | A549 21.4 µM | HCC 2998 20.3 µM

Oc1c(Cl)c2nccnc2c2ccccc12
inactive: UACC-62 > 100 µM | OVCAR-8 > 100 µM | SF-539 > 100 µM | OVCAR-4 > 100 µM | 786-0 > 100 µM | CCRF-CEM > 100 µM | K562 > 100 µM | U-251 > 100 µM | UACC-257 > 100 µM | NCI-H460 > 100 µM | UO-31 > 100 µM | SK-MEL-28 > 100 µM | A549 > 100 µM | HCC 2998 > 100 µM | HOP-92 > 100 µM

Cc1[nH]c2ccccc2c1C(=O)CC1(O)C(=O)Nc2c(Cl)cc(Cl)cc21 (configuration not stated)
inactive: OVCAR-8 24.3 µM | SF-539 26.4 µM | OVCAR-4 9.75 µM | CAKI-1 40.8 µM | 786-0 26.8 µM | CCRF-CEM 20.3 µM | K562 20.9 µM | U-251 30.1 µM | UACC-257 17.2 µM | SR 28.4 µM | NCI-H460 48.9 µM | UO-31 26.3 µM | SK-MEL-28 27 µM | A549 36.1 µM | HCC 2998 51.6 µM

COc1ccc2nc3cc(Cl)ccc3c(SCC(=O)Nc3ccccc3-c3ccccc3NC(=O)CSc3c4ccc(Cl)cc4nc4ccc(OC)cc34)c2c1
inactive: UACC-62 > 100 µM | OVCAR-8 > 100 µM | SF-539 > 100 µM | OVCAR-4 > 100 µM | CAKI-1 > 100 µM | 786-0 > 100 µM | CCRF-CEM > 100 µM | K562 > 100 µM | U-251 > 100 µM | UACC-257 > 100 µM | NCI-H460 > 100 µM | UO-31 > 100 µM | SK-MEL-28 > 100 µM | A549 > 100 µM | HCC 2998 > 100 µM | HOP-92 > 100 µM

O=C1NC(=O)c2c1n(Cc1ccccc1)c(=O)n2Cc1ccccc1
inactive: UACC-62 84.3 µM | OVCAR-8 > 100 µM | SF-539 36 µM | OVCAR-4 > 100 µM | CAKI-1 > 100 µM | 786-0 > 100 µM | CCRF-CEM > 100 µM | K562 35.8 µM | U-251 > 100 µM | UACC-257 > 100 µM | NCI-H460 86.7 µM | UO-31 > 100 µM | SK-MEL-28 > 100 µM | A549 > 100 µM | HCC 2998 > 100 µM | HOP-92 25.8 µM

C[N+]1=c2c3cccc4cccc(c(=O)n2CCC1)c43
inactive: UACC-62 18.7 µM | OVCAR-8 17.7 µM | SF-539 30.8 µM | OVCAR-4 18.9 µM | CAKI-1 31 µM | 786-0 35.9 µM | CCRF-CEM 3.13 µM | K562 9.02 µM | U-251 29.9 µM | UACC-257 17.3 µM | SR 18.2 µM | NCI-H460 18.2 µM | UO-31 17.9 µM | SK-MEL-28 19.4 µM | A549 32.2 µM | HOP-92 28.1 µM

[O-][Cl+3]([O-])([O-])O.c1ccc(/N=c2\snc(-c3ccccc3)s2)cc1
inactive: UACC-62 > 100 µM | OVCAR-8 > 100 µM | SF-539 > 100 µM | OVCAR-4 > 100 µM | CAKI-1 > 100 µM | 786-0 > 100 µM | CCRF-CEM > 100 µM | K562 > 100 µM | U-251 > 100 µM | UACC-257 > 100 µM | SR > 100 µM | NCI-H460 > 100 µM | UO-31 > 100 µM | SK-MEL-28 > 100 µM | A549 > 100 µM | HCC 2998 > 100 µM

CC(C)=CC(=O)CC(=O)C(=O)Nc1ccc(C)c(C)c1
inactive: UACC-62 > 100 µM | SF-539 > 100 µM | CAKI-1 > 100 µM | 786-0 > 100 µM | CCRF-CEM > 100 µM | K562 > 100 µM | U-251 > 100 µM | UACC-257 > 100 µM | SR > 100 µM | UO-31 > 100 µM | SK-MEL-28 > 100 µM | A549 > 100 µM | HOP-92 > 100 µM

COC(=O)c1c(O)ccc(O)c1C(C(C)=O)C(C)=O
inactive: UACC-62 96.6 µM | OVCAR-8 > 100 µM | SF-539 > 100 µM | OVCAR-4 > 100 µM | CAKI-1 > 100 µM | 786-0 > 100 µM | CCRF-CEM > 100 µM | K562 > 100 µM | U-251 > 100 µM | UACC-257 > 100 µM | NCI-H460 > 100 µM | UO-31 > 100 µM | SK-MEL-28 > 100 µM | A549 > 100 µM | HCC 2998 > 100 µM | HOP-92 > 100 µM

Cc1noc2c1C(=O)CCC2
inactive: UACC-62 > 100 µM | OVCAR-8 > 100 µM | SF-539 > 100 µM | OVCAR-4 > 100 µM | CAKI-1 > 100 µM | 786-0 > 100 µM | CCRF-CEM > 100 µM | K562 > 100 µM | UACC-257 > 100 µM | SR > 100 µM | UO-31 > 100 µM | SK-MEL-28 > 100 µM | HOP-92 > 100 µM

CNC1=Nc2ccc(Cl)cc2C(c2ccccc2)=NN1C
inactive: UACC-62 > 100 µM | OVCAR-8 > 100 µM | SF-539 > 100 µM | OVCAR-4 > 100 µM | CAKI-1 28.5 µM | 786-0 54.7 µM | CCRF-CEM 83.8 µM | K562 51.2 µM | U-251 > 100 µM | UACC-257 83 µM | NCI-H460 > 100 µM | UO-31 35.5 µM | SK-MEL-28 > 100 µM | A549 > 100 µM | HCC 2998 24.9 µM | HOP-92 27.6 µM

C[N+]12c3ccccc3O[B-]1(c1ccccc1)Oc1ccccc12 (configuration not stated)
inactive: UACC-62 37.4 µM | OVCAR-8 28.6 µM | SF-539 26.9 µM | OVCAR-4 31.6 µM | CAKI-1 63.1 µM | 786-0 35.9 µM | CCRF-CEM 11.9 µM | K562 28.6 µM | U-251 16.6 µM | UACC-257 27.1 µM | SR 10.9 µM | SK-MEL-28 35.1 µM | A549 39.4 µM | HOP-92 > 100 µM
